Paper PMC7473772 (eLife, 2020)
Values joined by “and” are separate entries in the source; they are usually repeats but may differ in a detail not shown here. Equal entries are not always repeated. Where two headings read alike, the source gives them in different places.

Assays:
[1] = tested on: tbaqp1-2-3 null cells expressing TbAQP2WT; assay: Drug sensitivity assay (resazurin), pentamidine and SHAM; format: cell-based, Trypanosoma brucei brucei; conditions: Trypanosoma brucei, +AQP2 W.T in aqp1-3 triple KO; 3 repeats; read-out: Alamar blue EC50, MEAN
TbAQP2 L218M = TbAQP2 L218M (Trypanosoma brucei brucei, UniProt Q6ZXT3, L218M); assay: [3H]-pentamidine transport; format: cell-based; conditions: AQP2 mutant L218M; n=3
TbAQP2 L218M, sequence (Q6ZXT3 whole entry L218M): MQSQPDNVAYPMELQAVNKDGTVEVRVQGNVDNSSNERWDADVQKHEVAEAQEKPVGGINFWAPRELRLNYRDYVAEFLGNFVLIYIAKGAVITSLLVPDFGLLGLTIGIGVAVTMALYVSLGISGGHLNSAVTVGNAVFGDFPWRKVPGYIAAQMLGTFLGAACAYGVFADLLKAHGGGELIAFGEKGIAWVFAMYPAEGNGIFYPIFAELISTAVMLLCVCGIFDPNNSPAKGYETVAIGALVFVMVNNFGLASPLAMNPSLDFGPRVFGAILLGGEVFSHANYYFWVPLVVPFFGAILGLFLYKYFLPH

[2] = tested on: tbaqp2/tbaqp3 null cells expressing TbAQP2^S131P/S263A; format: cell-based, Trypanosoma brucei brucei
[3] = target: T1, aqp1/aqp2/aqp3 null cells expressing TbAQP2-WT (Trypanosoma brucei brucei, UniProt Q6ZXT3); assay: Inhibition of [3H]-pentamidine uptake (dose response); format: cell-based; conditions: zero inhibitor point 0.01011
T1 sequence (Q6ZXT3 1-312): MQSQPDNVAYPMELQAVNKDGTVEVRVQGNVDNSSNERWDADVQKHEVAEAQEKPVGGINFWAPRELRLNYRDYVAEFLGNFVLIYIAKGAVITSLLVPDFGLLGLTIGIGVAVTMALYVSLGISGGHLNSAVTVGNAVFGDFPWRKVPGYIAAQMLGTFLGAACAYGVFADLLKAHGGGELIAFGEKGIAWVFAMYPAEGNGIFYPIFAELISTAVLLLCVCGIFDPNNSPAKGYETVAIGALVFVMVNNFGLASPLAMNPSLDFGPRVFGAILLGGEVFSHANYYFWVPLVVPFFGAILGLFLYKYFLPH

3×HA tagged TbAQP2 = target: T2, 3×HA tagged TbAQP2 (Trypanosoma brucei brucei, UniProt Q6ZXT3); format: cell-based
T2 construct: expressed in transfected cells; host or cells: T. brucei 2T1 bloodstream forms, tetracycline-induced

TbAQP2 L218W = TbAQP2 L218W (Trypanosoma brucei brucei, UniProt Q6ZXT3, L218W); assay: [3H]-pentamidine transport; format: cell-based; conditions: AQP2 mutant L218W; n=4
TbAQP2 L218W, sequence (Q6ZXT3 whole entry L218W): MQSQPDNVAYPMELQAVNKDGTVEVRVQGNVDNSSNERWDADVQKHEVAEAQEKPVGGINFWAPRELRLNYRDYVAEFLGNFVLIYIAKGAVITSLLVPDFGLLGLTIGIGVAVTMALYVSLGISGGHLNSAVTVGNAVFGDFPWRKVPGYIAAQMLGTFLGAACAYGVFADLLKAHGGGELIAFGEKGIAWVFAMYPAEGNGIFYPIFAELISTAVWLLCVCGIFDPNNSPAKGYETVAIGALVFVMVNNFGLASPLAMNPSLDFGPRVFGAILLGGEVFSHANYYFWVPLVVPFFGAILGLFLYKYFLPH

[4] = tested on: tbaqp2/tbaqp3 null cells expressing TbAQP2 L84M; assay: microbe, parasite or virus in culture; format: cell-based, Trypanosoma brucei brucei; conditions: Trypanosoma brucei
TbAQP2^L84W/L118W = TbAQP2^L84W/L118W (Trypanosoma brucei brucei, UniProt Q6ZXT3, L118W/L84W); assay: [3H]-pentamidine transport; format: cell-based; conditions: AQP2 mutant L84W/118W; n=3
TbAQP2^L84W/L118W, sequence (Q6ZXT3 whole entry L84W/L118W): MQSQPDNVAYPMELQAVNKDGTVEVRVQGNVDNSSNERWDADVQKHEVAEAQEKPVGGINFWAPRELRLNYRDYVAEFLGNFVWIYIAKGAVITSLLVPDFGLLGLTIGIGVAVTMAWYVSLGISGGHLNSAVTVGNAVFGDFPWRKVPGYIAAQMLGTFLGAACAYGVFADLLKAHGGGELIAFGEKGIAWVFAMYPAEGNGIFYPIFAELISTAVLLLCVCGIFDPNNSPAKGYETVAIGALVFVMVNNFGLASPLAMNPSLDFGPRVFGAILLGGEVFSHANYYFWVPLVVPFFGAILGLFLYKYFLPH

[5] = tested on: tbaqp2/tbaqp3 null cells expressing TbAQP2 L218M; assay: microbe, parasite or virus in culture; format: cell-based, Trypanosoma brucei brucei; conditions: Trypanosoma brucei
TbAQP3^W102I/R256L/Y250L = TbAQP3^W102I/R256L/Y250L (Trypanosoma brucei brucei, UniProt Q6ZXT2, R256L/W102I/Y250L); assay: [3H]-pentamidine transport; format: cell-based; conditions: AQP3 W102I/R256L/Y250L; over 30 minutes
TbAQP3^W102I/R256L/Y250L, sequence (Q6ZXT2 whole entry W102I/Y250L/R256L): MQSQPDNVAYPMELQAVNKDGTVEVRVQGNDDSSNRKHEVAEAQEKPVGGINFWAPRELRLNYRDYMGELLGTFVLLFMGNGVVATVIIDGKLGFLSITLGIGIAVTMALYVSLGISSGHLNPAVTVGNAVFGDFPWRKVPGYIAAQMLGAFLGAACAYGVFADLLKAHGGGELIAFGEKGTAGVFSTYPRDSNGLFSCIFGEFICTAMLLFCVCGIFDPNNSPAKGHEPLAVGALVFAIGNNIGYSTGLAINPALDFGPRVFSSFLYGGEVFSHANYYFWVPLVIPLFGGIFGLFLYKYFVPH

tbaqp2/tbaqp3 null cells = assay: microbe, parasite or virus in culture; format: cell-based, Trypanosoma brucei brucei
[6] = target: T1, aqp1/aqp2/aqp3 null cells expressing TbAQP2-WT; assay: Inhibition of [3H]-glycerol uptake; format: cell-based; conditions: for glycerol uptake: zero inhibitor point 0.002246
TbAQP2/HAPT1 = TbAQP2/HAPT1 (Trypanosoma brucei brucei, UniProt Q6ZXT3); assay: cell-based; format: cell-based
TbAQP2^L258Y = TbAQP2^L258Y (Trypanosoma brucei brucei, UniProt Q6ZXT3, L258Y); assay: [3H]-pentamidine transport; format: cell-based; conditions: 30 nM [3H]-pentamidine
TbAQP2^L258Y, sequence (Q6ZXT3 whole entry L258Y): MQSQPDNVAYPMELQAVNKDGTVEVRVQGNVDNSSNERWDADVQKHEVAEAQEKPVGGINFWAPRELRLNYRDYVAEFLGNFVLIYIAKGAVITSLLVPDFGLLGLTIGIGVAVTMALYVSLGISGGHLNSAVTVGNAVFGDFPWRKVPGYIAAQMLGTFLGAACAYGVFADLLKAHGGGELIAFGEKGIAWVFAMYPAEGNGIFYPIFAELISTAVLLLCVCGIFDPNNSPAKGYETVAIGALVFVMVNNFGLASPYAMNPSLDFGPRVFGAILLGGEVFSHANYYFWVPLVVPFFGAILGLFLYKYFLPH

[7] = tested on: tbaqp2/tbaqp3 null cells expressing TbAQP2^I110W; format: cell-based, Trypanosoma brucei brucei
[8] = tested on: tbaqp2/tbaqp3 null cells expressing TbAQP2WT; assay: microbe, parasite or virus in culture; format: cell-based, Trypanosoma brucei brucei
TbAQP2^S131P/S263A = TbAQP2^S131P/S263A (Trypanosoma brucei brucei, UniProt Q6ZXT3, S131P/S263A); assay: [3H]-pentamidine transport; format: cell-based; conditions: 30 nM [3H]-pentamidine
TbAQP2^S131P/S263A, sequence (Q6ZXT3 whole entry S131P/S263A): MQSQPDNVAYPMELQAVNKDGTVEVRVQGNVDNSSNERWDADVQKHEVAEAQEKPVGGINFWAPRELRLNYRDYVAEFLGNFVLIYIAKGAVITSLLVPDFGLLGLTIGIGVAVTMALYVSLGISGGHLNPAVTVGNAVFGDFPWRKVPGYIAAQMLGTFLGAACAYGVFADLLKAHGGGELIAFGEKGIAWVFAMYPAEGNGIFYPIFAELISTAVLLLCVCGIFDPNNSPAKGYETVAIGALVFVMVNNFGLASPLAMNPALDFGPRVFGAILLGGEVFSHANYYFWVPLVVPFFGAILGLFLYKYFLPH

TbAQP2 L118W = TbAQP2 L118W (Trypanosoma brucei brucei, UniProt Q6ZXT3, L118W); assay: [3H]-pentamidine transport; format: cell-based; conditions: AQP2 mutant L118W; n=6
TbAQP2 L118W, sequence (Q6ZXT3 whole entry L118W): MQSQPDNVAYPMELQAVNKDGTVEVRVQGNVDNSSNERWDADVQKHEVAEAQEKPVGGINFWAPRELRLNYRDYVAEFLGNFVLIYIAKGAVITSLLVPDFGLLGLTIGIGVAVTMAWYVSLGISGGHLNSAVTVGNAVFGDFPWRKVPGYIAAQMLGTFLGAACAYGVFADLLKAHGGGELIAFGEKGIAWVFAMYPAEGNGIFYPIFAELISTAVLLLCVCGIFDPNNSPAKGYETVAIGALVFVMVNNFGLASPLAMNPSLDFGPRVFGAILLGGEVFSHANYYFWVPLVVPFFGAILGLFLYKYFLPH

[9] = tested on: tbaqp2/tbaqp3 null cells expressing TbAQP2 L118M; assay: microbe, parasite or virus in culture; format: cell-based, Trypanosoma brucei brucei
TbAQP2 L84M = TbAQP2 L84M (Trypanosoma brucei brucei, UniProt Q6ZXT3, L84M); assay: [3H]-pentamidine transport; format: cell-based; conditions: AQP2 mutant L84M; n=3
TbAQP2 L84M, sequence (Q6ZXT3 whole entry L84M): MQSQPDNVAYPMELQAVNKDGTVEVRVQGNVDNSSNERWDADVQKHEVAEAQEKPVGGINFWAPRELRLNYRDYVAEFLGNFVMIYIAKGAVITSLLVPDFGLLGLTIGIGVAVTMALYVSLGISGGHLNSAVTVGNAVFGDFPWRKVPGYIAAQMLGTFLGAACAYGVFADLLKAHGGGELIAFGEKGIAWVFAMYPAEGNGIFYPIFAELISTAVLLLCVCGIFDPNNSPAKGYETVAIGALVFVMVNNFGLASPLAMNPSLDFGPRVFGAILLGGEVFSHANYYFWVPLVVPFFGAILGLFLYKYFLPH

TbAQP2 L118M = TbAQP2 L118M (Trypanosoma brucei brucei, UniProt Q6ZXT3, L118M); assay: [3H]-pentamidine transport; format: cell-based; conditions: AQP2 mutant L118M
TbAQP2 L118M, sequence (Q6ZXT3 whole entry L118M): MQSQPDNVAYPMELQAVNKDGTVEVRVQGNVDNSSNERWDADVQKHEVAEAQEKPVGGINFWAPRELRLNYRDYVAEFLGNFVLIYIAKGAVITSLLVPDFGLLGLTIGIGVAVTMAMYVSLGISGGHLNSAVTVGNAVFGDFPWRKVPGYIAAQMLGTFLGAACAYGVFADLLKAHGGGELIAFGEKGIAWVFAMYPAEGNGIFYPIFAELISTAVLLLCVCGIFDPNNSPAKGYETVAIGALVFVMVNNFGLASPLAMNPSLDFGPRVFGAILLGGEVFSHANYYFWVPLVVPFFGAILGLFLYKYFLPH

[10] = read-out: Alamar blue EC50, MEAN
[11] = Trypanosoma brucei, read-out: Alamar blue EC50, MEAN
[12] = Trypanosoma brucei, read-out: Alamar blue EC50, single repeats
[13] = read-out: Alamar blue EC50, single repeats

N=C(N)c1ccc(OCCCCCOc2ccc(C(=N)N)cc2)cc1 [Pentamidine]
EC50 [1]: 0.0011 µM
Pentamidine transport rate AVG (TbAQP2 L218M): 0.004612 pmol/10E7 cells/s
EC50, percent of AQP2/3 null EC50 [2]: 1.92%
pentamidine uptake ([3]; log[inhibitor] -3.60): -1.5e-19
pentamidine uptake ([3]; log[inhibitor] -6.48): 0.001052
pentamidine uptake ([3]; log[inhibitor] -7.00): 0.005102
pentamidine uptake ([3]; log[inhibitor] -7.52): 0.006394
pentamidine uptake ([3]; log[inhibitor] -8.00): 0.007854
pentamidine uptake ([3]; log[inhibitor] -8.48): 0.008733
pentamidine uptake ([3]; log[inhibitor] -9.00): 0.008545
pentamidine uptake ([3]; log[inhibitor] -9.48): 0.009352
Effect on TbAQP2 turnover rate (3×HA tagged TbAQP2): identical turnover rates
Pentamidine transport rate AVG (TbAQP2 L218W): 0.002093 pmol/10E7 cells/s
EC50 [4, 10]: 0.00043 µM
EC50 ([4]; read-out: EC50 AVG): 0.00043 µM
Pentamidine transport rate AVG (TbAQP2^L84W/L118W): 0.0002985 pmol/10E7 cells/s
EC50 [5, 10]: 0.00063 µM
EC50 ([5]; read-out: EC50 AVG): 0.00063 µM
Pentamidine transport rate (TbAQP3^W102I/R256L/Y250L): 2.46E-04 pmol/10E7 cells/s
EC50, percent of AQP2/3 null EC50 (tbaqp2/tbaqp3 null cells): 100.00%
EC50 as percent of AQP2/3 null EC50, MEAN (tbaqp2/tbaqp3 null cells): 100.00%
EC50 as percent of AQP2/3 null EC50, single repeats (tbaqp2/tbaqp3 null cells): 100%
EC50 (tbaqp2/tbaqp3 null cells; [11]): 0.0663 µM
EC50 (tbaqp2/tbaqp3 null cells; [12]): 0.0693 µM
EC50 (tbaqp2/tbaqp3 null cells; [10]): 0.0723 µM
EC50 (tbaqp2/tbaqp3 null cells; [13]): 0.0521 µM and 0.0776 µM and 0.0775 µM and 0.0689 µM and 0.0705 µM
EC50 [6]: 0.0275 µM
glycerol uptake ([6]; log[inhibitor] -3.60): 6.78e-20
glycerol uptake ([6]; log[inhibitor] -6.48): 0.000111
glycerol uptake ([6]; log[inhibitor] -7.00): 0.000765
glycerol uptake ([6]; log[inhibitor] -7.52): 0.00147
glycerol uptake ([6]; log[inhibitor] -8.00): 0.002105
glycerol uptake ([6]; log[inhibitor] -8.48): 0.002143
glycerol uptake ([6]; log[inhibitor] -9.00): 0.002263
glycerol uptake ([6]; log[inhibitor] -9.48): 0.002177
ΔG0 (TbAQP2/HAPT1): -10.2 kcal/mol
ΔG^0 (binding energy of substrate-transporter pair) (TbAQP2/HAPT1): -10.2 kcal/mol
δ(ΔG0) (TbAQP2/HAPT1): 0 kcal/mol
Ki (TbAQP2/HAPT1; Ki): 0.036 ± 0.0006 µM
Ki (TbAQP2/HAPT1; Ki / affinity): 0.035 µM
Pentamidine transport rate (TbAQP2^L258Y): 0.0004 pmol/10E7 cells/s
EC50, percent of AQP2/3 null EC50 [7]: 122.13%
EC50, percent of AQP2/3 null EC50 [8]: 0.08% and 0.0842% and 1.40% and 0.16%
EC50 [8, 11]: 0.00084 µM
EC50 [8, 10]: 0.00161 µM
EC50 [8, 13]: 0.0015 µM
Pentamidine transport rate (TbAQP2^S131P/S263A): 0.00111 pmol/10E7 cells/s
Pentamidine transport rate AVG (TbAQP2 L118W): 0.0006283 pmol/10E7 cells/s
EC50 [9, 11]: 0.0342 µM
EC50 [9, 12]: 0.039 µM
EC50 ([9]; Trypanosoma brucei, read-out: EC50 AVG): 0.0342 µM
EC50 [9, 13]: 0.0395 µM and 0.0242 µM
Pentamidine transport rate AVG (TbAQP2 L84M): 0.003585 pmol/10E7 cells/s
Pentamidine transport rate AVG (TbAQP2 L118M; n=3): 0.0006601 pmol/10E7 cells/s
Pentamidine transport rate (TbAQP2 L118M; single experiments): 0.000589 pmol/10E7 cells/s and 0.000736 pmol/10E7 cells/s and 0.0006552 pmol/10E7 cells/s
